Here are results for 31 compounds from the Kinase Knowledgebase extract (Sharma et al. 2016).

In one experiment the target is MAPK14 (UniProt Q16539). The experiment can be described thus: Inhibition of MAPK14 Kinase Activity.
The next experiment has as its target MAPK14 (human) (UniProt Q16539). Briefly: Inhibition of LPS-Stimulated TNF-alpha Production in Human Whole Blood.

SMILES strings stand for the structures.

MAPK14 (human), sequence (Q16539 whole entry, looked up): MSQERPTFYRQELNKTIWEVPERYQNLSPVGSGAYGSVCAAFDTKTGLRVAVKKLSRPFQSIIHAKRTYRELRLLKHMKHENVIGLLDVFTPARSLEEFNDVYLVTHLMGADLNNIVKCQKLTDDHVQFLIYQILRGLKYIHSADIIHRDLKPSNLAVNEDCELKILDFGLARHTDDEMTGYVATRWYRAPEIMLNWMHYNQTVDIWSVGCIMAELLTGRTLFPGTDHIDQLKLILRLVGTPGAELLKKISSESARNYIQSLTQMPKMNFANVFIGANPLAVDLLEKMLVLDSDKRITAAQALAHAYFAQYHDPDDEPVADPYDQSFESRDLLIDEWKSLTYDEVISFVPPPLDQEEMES
MAPK14, sequence (Q16539 whole entry, looked up): as above

Consider `COc1cc2ncnc(Nc3cc(NC(=O)c4cccc(N5CCOCC5)c4)ccc3C)c2cc1OCCN1CCOCC1`, for which the results for the IC50 against MAPK14 and against MAPK14 (human) were 24 nM and 7800 nM, respectively.

As for `COc1cc2ncnc(Nc3ccc(C)c(NC(=O)c4ccccc4)c3)c2cc1OC`, the 50% inhibitory concentration (IC50) against MAPK14 (human) is above 50000 nM.

`COc1cc2ncnc(Nc3cccc(NC(=O)c4ccccc4)c3F)c2cc1OC` gave an IC50 against MAPK14 (human) above 50000 nM.

On MAPK14, `COc1cc2ncnc(Nc3cc(NC(=O)c4cccc(N5CCOCC5)c4)ccc3C)c2cc1OCCN1CCCC1` gave a half-maximal inhibitory concentration (IC50) of 39 nM.

`COc1cc2ncnc(Nc3cc(NC(=O)c4ccccc4)ccc3C)c2cc1OC` showed an IC50 at MAPK14 of 78 nM.

The compound `COc1cc2ncnc(Nc3ccc(Cl)c(NC(=O)c4cccc(N(C)C)c4)c3)c2cc1OC` yielded an IC50 against MAPK14 (human) above 50000 nM.

Regarding `Cc1ccc(NC(=O)c2ccnc(N3CCOCC3)c2)cc1Nc1ccnc(NCCCN2CCOCC2)n1`, the IC50 on MAPK14 is 98 nM; on MAPK14 (human) it was above 50000 nM.

Consider `COc1cc2ncnc(Nc3cc(NC(=O)c4ccccc4)c(F)cc3F)c2cc1OC`, for which the IC50 on MAPK14 was 54 nM; on MAPK14 (human) it was above 50000 nM.

In the case of `COc1cc2ncnc(Nc3cc(NC(=O)c4cccc(N5CCOCC5)c4)ccc3C)c2cc1OCCN(C(C)C)C(C)C`, the IC50 amounted to 52 nM at MAPK14 and 3500 nM at MAPK14 (human).

`Cc1ccc(NC(=O)c2ccnc(N3CCOCC3)c2)cc1Nc1ccnc(NCCCN2CCCC2)n1` yielded an IC50 at MAPK14 of 58 nM.

The compound `Cc1ccc(NC(=O)c2ccnc(N3CCOCC3)c2)cc1Nc1ccnc(Cl)n1` yielded an IC50 on MAPK14 of 19 nM.

As for `COc1cc2ncnc(Nc3cccc(Cl)c3)c2cc1OC`, the IC50 against MAPK14 (human) was above 50000 nM.

`COc1cc2ncnc(Nc3cccc(NC(=O)c4ccccc4)c3)c2cc1OC` yielded an IC50 at MAPK14 (human) above 50000 nM.

As to `C=CCN(C)c1nccc(Nc2cc(NC(=O)c3ccnc(N4CCOCC4)c3)ccc2C)n1`, the IC50 at MAPK14 (human) is above 50000 nM.

As for `Cc1ccc(NC(=O)c2ccnc(N3CCOCC3)c2)cc1Nc1cc(Cl)ncn1`, the IC50 against MAPK14 (human) is above 50000 nM.

`Cc1ccc(NC(=O)c2ccnc(N3CCOCC3)c2)cc1Nc1ccnc(OC2CCN(C)CC2)n1` had an IC50 against MAPK14 of 45 nM.

On MAPK14 (human), `COc1cc2ncnc(Nc3cccc(NC(=O)c4cccc(N(C)C)c4)c3)c2cc1OC` returned an IC50 above 50000 nM.

Take `COc1cc2ncnc(Nc3cc(NC(=O)c4cccc(N(C)C)c4)ccc3Cl)c2cc1OC`: the IC50 against MAPK14 was 47 nM; against MAPK14 (human), above 50000 nM.

`COc1cc2ncnc(Nc3cc(NC(=O)c4ccccc4)c(Cl)cc3F)c2cc1OC` returned an IC50 at MAPK14 (human) above 50000 nM.

For `COc1cc2ncnc(Nc3cc(NC(=O)c4cccc(N5CCOCC5)c4)ccc3C)c2cc1OCCN(C)C`, the IC50 against MAPK14 turned out to be 35 nM; at MAPK14 (human), 6900 nM.

On to `CSc1nccc(Nc2cc(NC(=O)c3cc(F)cc(N4CCOCC4)c3)ccc2C)n1`, for which the IC50 on MAPK14 is 14 nM.

Take `Cc1ccc(NC(=O)c2ccnc(N3CCOCC3)c2)cc1Nc1cc(NCCCN2CCCC2)ncn1`: the IC50 against MAPK14 (human) was above 50000 nM.

As for `COc1cc2ncnc(Nc3cc(NC(=O)c4ccccc4)ccc3Cl)c2cc1OC`, the IC50 against MAPK14 is 88 nM; on MAPK14 (human), above 50000 nM.

For the compound `COc1cc2ncnc(Nc3cc(NC(=O)c4cccc(N5CCOCC5)c4)ccc3C)c2cc1OCCN1CCCCC1`, the concentration for half-maximal inhibition (IC50) on MAPK14 was determined as 56 nM; on MAPK14 (human), 4600 nM.

Turning to `CCCN1CCC(Oc2nccc(Nc3cc(NC(=O)c4cccc(N5CCOCC5)c4)ccc3C)n2)CC1`, the IC50 on MAPK14 came to 49 nM.

`Cc1ccc(NC(=O)c2ccnc(N3CCOCC3)c2)cc1Nc1ccnc(OCC2CCCN(C)C2)n1` (stereo not given) came in with a half-inhibitory concentration (IC50) against MAPK14 of 33 nM.

In the case of `Cc1ccc(NC(=O)c2ccnc(N3CCOCC3)c2)cc1Nc1ccnc(OCC(C)(C)CN(C)C)n1`, the IC50 against MAPK14 was 79 nM.

With `Cc1ccc(NC(=O)c2ccnc(N3CCOCC3)c2)cc1Nc1ccnc(OCCCN(C)C)n1`, at MAPK14, the IC50 was 37 nM.

In the case of `Cc1ccc(NC(=O)c2ccnc(N3CCOCC3)c2)cc1Nc1cc(NCCCN2CCCN(C)CC2)ncn1`, the IC50 against MAPK14 was 1220 nM; against MAPK14 (human), above 50000 nM.

As to `CCCN1CCC(Oc2nccc(Nc3cc(NC(=O)c4ccnc(N5CCOCC5)c4)ccc3C)n2)CC1`, the IC50 at MAPK14 is 55 nM.

With `COc1cc2ncnc(Nc3ccc(Cl)c(NC(=O)c4ccccc4)c3)c2cc1OC`, the IC50 against MAPK14 (human) is above 50000 nM.

Broadly, the IC50 is the midpoint of a concentration-inhibition curve.
